For orientation: pEC50 means the EC50 on a negative log10 scale, so that one unit is a factor of ten.

pEC50: −log10 of the molar value.

The text below walks through data of patent publication US12577206B2 (BRISTOL-MYERS SQUIBB COMPANY, priority 2020, dated 2026).

Experiment [1] has as its target T1, human FPR1 (Homo sapiens, UniProt P21462).
T1 sequence (P21462 1-350): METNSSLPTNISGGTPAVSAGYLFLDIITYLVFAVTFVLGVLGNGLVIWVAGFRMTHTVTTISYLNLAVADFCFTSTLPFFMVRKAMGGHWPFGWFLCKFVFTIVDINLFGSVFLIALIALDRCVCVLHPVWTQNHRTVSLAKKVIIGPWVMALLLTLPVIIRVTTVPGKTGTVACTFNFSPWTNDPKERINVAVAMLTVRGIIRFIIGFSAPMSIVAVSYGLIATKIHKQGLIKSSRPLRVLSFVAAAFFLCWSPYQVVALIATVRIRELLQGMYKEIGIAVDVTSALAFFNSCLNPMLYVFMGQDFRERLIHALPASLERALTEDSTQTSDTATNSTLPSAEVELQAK
Put plainly: FPR1 cyclic adenosine monophosphate (cAMP) assay. The format is cell-based. The following applies: CHO cells overexpressing human FPR1; forskolin 10 μM; inhibition of cAMP production; HTRF; read-out: hFPR1 cAMP2 EC50. In outline:
(§1)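 Gi-coupled activity is read as suppression of forskolin-stimulated cAMP (10 μM final for FPR1, 5 μM final for FPR2; IBMX 200 μM final) in recombinant CHO cells, 30 min incubation at rt, HTRF detection.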
On the technique in general: cAMP levels reflect the balance of adenylyl cyclase and phosphodiesterase activity.

Experiment [2] deals with T2, human FPR2 (Homo sapiens, UniProt P25090).
T2 sequence (P25090 1-351): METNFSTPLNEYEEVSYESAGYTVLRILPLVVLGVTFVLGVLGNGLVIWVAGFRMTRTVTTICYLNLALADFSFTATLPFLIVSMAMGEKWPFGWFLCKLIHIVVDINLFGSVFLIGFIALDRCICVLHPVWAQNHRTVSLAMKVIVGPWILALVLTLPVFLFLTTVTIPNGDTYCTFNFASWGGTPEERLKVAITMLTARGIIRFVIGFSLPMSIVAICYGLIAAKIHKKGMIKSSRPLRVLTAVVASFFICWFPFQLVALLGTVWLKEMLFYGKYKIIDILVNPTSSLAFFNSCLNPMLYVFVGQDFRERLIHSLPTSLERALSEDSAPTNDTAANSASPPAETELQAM
Put plainly: FPR2 cyclic adenosine monophosphate (cAMP) assay. The format is cell-based. Particulars: CHO cells overexpressing human FPR2; forskolin 5 μM; inhibition of cAMP production; HTRF; read-out: hFPR2 cAMP2 EC50. The method in brief:
as §1

`COc1cc(F)c(-c2c(NC(=O)c3ccc(OC(F)F)cc3)c(=O)n(-c3cc(OCC4CCCO4)cc(C)n3)n2C)c(F)c1` (centres unmarked) [Example 396, N-(5-(2,6-Difluoro-4-methoxyphenyl)-1-methyl-2-(6-methyl-4-((tetrahydrofuran-2-yl)methoxy)pyridin-2-yl)-3-oxo-2,3-dihydro-1H-pyrazol-4-yl)-4-(difluoromethoxy)benzamide]: the pEC50 was 6.52 in experiment [1] and 8.70 in experiment [2].
The corresponding values for `[2H]C([2H])([2H])Oc1cc(F)c(-c2c(NC(=O)c3ccc(OC(F)F)cc3)c(=O)n(-c3cc(C(F)F)ccn3)n2C)c(F)c1` [Example 397, N-(5-(2,6-difluoro-4-(methoxy-d3)phenyl)-2-(4-(difluoromethyl)pyridin-2-yl)-1-methyl-3-oxo-2,3-dihydro-1H-pyrazol-4-yl)-4-(difluoromethoxy)benzamide] are less than 5.00 and 8.10.
The corresponding values for `CC(C)Oc1cc(OCCO)nc(-n2c(=O)c(NC(=O)c3ccc(OC(F)(F)F)cc3)c(-c3c(F)cc(Cl)cc3F)n2C)c1` [Example 398, N-(5-(4-chloro-2,6-difluorophenyl)-2-(6-(2-hydroxyethoxy)-4-isopropoxypyridin-2-yl)-1-methyl-3-oxo-2,3-dihydro-1H-pyrazol-4-yl)-4-(trifluoromethoxy)benzamide] are 6.23 and 7.62.
The like results for `CC(C)Oc1cc(OCCO)nc(-n2c(=O)c(NC(=O)c3ccc(OC(F)F)cc3)c(-c3c(F)cc(Cl)cc3F)n2C)c1` [Example 399, N-(5-(4-chloro-2,6-difluorophenyl)-2-(6-(2-hydroxyethoxy)-4-isopropoxypyridin-2-yl)-1-methyl-3-oxo-2,3-dihydro-1H-pyrazol-4-yl)-4-(difluoromethoxy)benzamide] were, in that order, 6.26 and 7.96.
`Cc1cc(OCC(C)(C)O)nc(-n2c(=O)c(NC(=O)c3ccc(OC(F)F)cc3)c(-c3c(F)cc(OC(F)F)cc3F)n2C)c1` [Example 400, 4-(difluoromethoxy)-N-(5-(4-(difluoromethoxy)-2,6-difluorophenyl)-2-(6-(2-hydroxy-2-methylpropoxy)-4-methylpyridin-2-yl)-1-methyl-3-oxo-2,3-dihydro-1H-pyrazol-4-yl)benzamide]: the negative logarithm of the EC50 (pEC50) in experiment [1] is less than 5.00; in experiment [2], 7.24.
As for `Cn1c(-c2c(F)cc(C(F)(F)F)cc2F)c(NC(=O)c2ccc(OC(F)F)cc2)c(=O)n1-c1cccc(C(C)(C)O)n1` [Example 401, N-(5-(2,6-difluoro-4-(trifluoromethyl)phenyl)-2-(6-(2-hydroxypropan-2-yl)pyridin-2-yl)-1-methyl-3-oxo-2,3-dihydro-1H-pyrazol-4-yl)-4-(difluoromethoxy)benzamide], the pEC50 was 5.74 in experiment [1] and 6.99 in experiment [2].
The like results for `[2H]C([2H])([2H])Oc1cc(F)c(-c2c(NC(=O)c3ccc(OC(F)(F)F)cc3)c(=O)n(-c3cc(C(F)(F)F)ccn3)n2C)c(F)c1` [Example 402, N-(5-(2,6-difluoro-4-(methoxy-d3)phenyl)-1-methyl-3-oxo-2-(4-(trifluoromethyl)pyridin-2-yl)-2,3-dihydro-1H-pyrazol-4-yl)-4-(trifluoromethoxy)benzamide] were, in that order, less than 5.00 and 8.30.
The corresponding values for `CCc1cc(F)c(-c2c(NC(=O)c3ccc(OC(F)(F)F)cc3)c(=O)n(-c3cccc(C(C)(C)O)n3)n2C)c(F)c1` [Example 403, N-(5-(4-ethyl-2,6-difluorophenyl)-2-(6-(2-hydroxypropan-2-yl)pyridin-2-yl)-1-methyl-3-oxo-2,3-dihydro-1H-pyrazol-4-yl)-4-(trifluoromethoxy)benzamide] are 5.77 and 8.22.
Regarding `[2H]C([2H])([2H])Oc1cc(F)c(-c2c(NC(=O)c3ccc(OC(F)F)cc3)c(=O)n(-c3cccc(C(C)(C)O)n3)n2C)c(F)c1` [Example 404, N-(5-(2,6-difluoro-4-(methoxy-d3)phenyl)-2-(6-(2-hydroxypropan-2-yl)pyridin-2-yl)-1-methyl-3-oxo-2,3-dihydro-1H-pyrazol-4-yl)-4-(difluoromethoxy)benzamide], the pEC50 in experiment [1] is 5.82; in experiment [2], 8.15.
The corresponding values for `[2H]C([2H])([2H])Oc1cc(F)c(-c2c(NC(=O)c3ccc(OC(F)(F)F)cc3)c(=O)n(-c3cccc(C(C)(C)O)n3)n2C)c(F)c1` [Example 405, N-(5-(2,6-difluoro-4-(methoxy-d3)phenyl)-2-(6-(2-hydroxypropan-2-yl)pyridin-2-yl)-1-methyl-3-oxo-2,3-dihydro-1H-pyrazol-4-yl)-4-(trifluoromethoxy)benzamide] are 6.41 and 8.10.
The like results for `Cn1c(-c2c(F)cc(Cl)cc2F)c(NC(=O)c2ccc(OC(F)(F)F)cc2)c(=O)n1-c1cccc(C(C)(C)O)n1` [Example 406, N-(5-(4-chloro-2,6-difluorophenyl)-2-(6-(2-hydroxypropan-2-yl)pyridin-2-yl)-1-methyl-3-oxo-2,3-dihydro-1H-pyrazol-4-yl)-4-(trifluoromethoxy)benzamide] were, in that order, 5.80 and 7.92.
The corresponding values for `Cn1c(-c2c(F)cc(Cl)cc2F)c(NC(=O)c2ccc(OC(F)F)cc2)c(=O)n1-c1cccc(C(C)(C)O)n1` [Example 407] are less than 5.00 and 7.64.
For the compound `CC(C)Oc1cc(OCC(C)(C)O)nc(-n2c(=O)c(NC(=O)c3ccc(OC(F)(F)F)cc3)c(-c3c(F)cc(Cl)cc3F)n2C)c1` [Example 408, N-(5-(4-chloro-2,6-difluorophenyl)-2-(6-(2-hydroxy-2-methylpropoxy)-4-isopropoxypyridin-2-yl)-1-methyl-3-oxo-2,3-dihydro-1H-pyrazol-4-yl)-4-(trifluoromethoxy)benzamide], the values for the negative-log EC50 (pEC50) in experiment [1] and in experiment [2] were 5.96 and 8.15, respectively.
